In patent US20240327463A1, “ANTIBACTERIAL PRODUCTS” (priority 2017, published 2024):
In brackets after ≈: the same amount, converted by molar mass. Values belong to the compound of their own block, whether it stands above or below them. Bridge positions count the residues as written; N and C are the ends. Square brackets hold non-standard residues; d marks the D form. Peptide text beside a SMILES is read from it. ξ: configuration not given here. dNMeF = CN[C@H](Cc1ccccc1)C(=O)O; Ile(3ξ) = CCC(C)[C@H](N)C(=O)O; Nva = CCC[C@H](N)C(=O)O

What was measured:
[1] = system: Staphylococcus aureus ATCC 29213; assay: microbe, parasite or virus in culture; settings: ATCC 29213
Experimental: (§1) For MIC testing all peptides were dissolved in DMSO (according to the method of L. L. Ling, et al., Nature 2015, 517, 455-459). Bacteria were grown on Mueller Hinton broth (oxoid). All incubations were at 37° C. Dilutions were carried out using Mueller Hinton. 100 μl of autoclaved Mueller Hinton broth was added to wells 2-12 on a 96-well plate. 200 μl of the peptide was added to well one at a concentration of 512 μg/ml. 100 μl of peptide in well one was taken up and pipetted into well two. The mixture was then mixed via pipetting before 100 μl was taken up and pipetted into well three. This process was repeated up to well 11. […] This was repeated three times. The 96-well plates were then incubated for 24 hours. The MIC was determined to be the lowest concentration at which there was no growth visible.

[2] = system: VRE ATCC 700802; assay: microbe, parasite or virus in culture; settings: ATCC 700802
Experimental: as §1

[3] = system: MRSA DR 42412 (sputum); assay: microbe, parasite or virus in culture; settings: DR 42412 (sputum)
Experimental: as §1

[4] = system: VRE ATCC 29212; assay: microbe, parasite or virus in culture; settings: ATCC 29212
Experimental: as §1

[5] = system: MRSA ATCC 700699; assay: microbe, parasite or virus in culture; settings: ATCC 700699
Experimental: as §1

[6] = system: MRSA DM21455 (eye); assay: microbe, parasite or virus in culture; settings: DM21455 (eye)
Experimental: as §1

[7] = system: VRE 1001; format: cell-based, Enterococcus faecalis
Experimental: (§2) Bacteria were grown on Mueller Hinton broth (oxoid). All incubations were at 37° C. Dilutions were carried out using Mueller Hinton. […] This process was repeated up to well 11. […] This was repeated three times. […] Results are tabulated in the Examples.

[8] = system: VRE 1008; format: cell-based, Enterococcus faecalis
Experimental: as §2

[9] = system: VRE 1002; format: cell-based, Enterococcus faecalis
Experimental: as §2

[10] = system: VRE 1004; format: cell-based, Enterococcus faecalis
Experimental: as §2

[11] = system: Staphylococcus saprophyticus ATCC 49453; format: cell-based; settings: ATCC 49453
Experimental: as §2

[12] = system: Bacillus Cereus ATCC 11788; format: cell-based
Experimental: as §2

[13] = system: Staphylococcus saprophyticus ATCC 15305; format: cell-based; settings: ATCC 15305
Experimental: as §2

[14] = system: Bacillus Subtilis ATCC 6633; format: cell-based
Experimental: as §2

[15] = system: Staphylococcus saprophyticus ATCC BAA 750; format: cell-based; settings: ATCC BAA 750
Experimental: as §2

[16] = system: Staphylococcus saprophyticus ATCC 49907; format: cell-based; settings: ATCC 49907
Experimental: as §2

[17] = system: SE12228; format: cell-based
Experimental: as §2

[18] = system: MRSA 1003; format: cell-based, Staphylococcus aureus
Experimental: as §2

[19] = system: MRSA ATCC 33591; settings: for MIC (MRSA): ATCC 33591
Experimental: as §1

MIC (MRSA) [19]: 0.5 µg/mL (≈ 0.393 µM)
Compound: CCC[C@@H]1NC(=O)[C@H](CCCNC(=N)N)NC(=O)[C@H](NC(=O)[C@H](CO)NC(=O)[C@@H](NC(=O)[C@H](NC(=O)[C@@H](CCC(N)=O)NC(=O)[C@H](CO)NC(=O)[C@@H](NC(=O)[C@@H](Cc2ccccc2)NC)[C@@H](C)CC)[C@H](C)CC)[C@@H](C)CC)[C@H](C)OC(=O)[C@H]([C@@H](C)CC)NC1=O [Compound 47, Arg9-Nva10-teixobactin] (H-[dNMeF]IS[dQ][dI]IS[dT]R[Nva]I; ester 8-C)

MIC (MRSA) [19]: >64 µg/mL
Compound: CCC[C@@H]1NC(=O)[C@H](C)NC(=O)[C@H](NC(=O)[C@H](CO)NC(=O)[C@@H](NC(=O)[C@H](NC(=O)[C@@H](CCCNC(=N)N)NC(=O)[C@H](CCCNC(=N)N)NC(=O)[C@@H](NC(=O)[C@@H](Cc2ccccc2)NC)[C@@H](C)CC)[C@H](C)CC)[C@@H](C)CC)[C@H](C)OC(=O)[C@H]([C@@H](C)CC)NC1=O [Compound 48, Arg3-D-Arg4-Nva10-teixobactin] (H-[dNMeF]IR[dR][dI]IS[dT]A[Nva]I; ester 8-C)

MIC (MRSA) [19]: 0.5 µg/mL (≈ 0.373 µM)
Compound: CCC[C@@H]1NC(=O)[C@H](CCCNC(=N)N)NC(=O)[C@H](NC(=O)[C@H](CO)NC(=O)[C@@H](NC(=O)[C@H](NC(=O)[C@@H](CCC(N)=O)NC(=O)[C@H](CCCNC(=N)N)NC(=O)[C@@H](NC(=O)[C@@H](Cc2ccccc2)NC)[C@@H](C)CC)[C@H](C)CC)[C@@H](C)CC)[C@H](C)OC(=O)[C@H]([C@@H](C)CC)NC1=O [Compound 49, Arg3-Arg9-Nva10-teixobactin] (H-[dNMeF]IR[dQ][dI]IS[dT]R[Nva]I; ester 8-C)

MIC (MRSA) [19]: 0.5 µg/mL (≈ 0.384 µM)
Compound: CCC[C@@H]1NC(=O)[C@H](CCCNC(=N)N)NC(=O)[C@H](NC(=O)[C@H](CO)NC(=O)[C@@H](NC(=O)[C@H](NC(=O)[C@@H](CCCNC(=N)N)NC(=O)[C@H](CO)NC(=O)[C@@H](NC(=O)[C@@H](Cc2ccccc2)NC)[C@@H](C)CC)[C@H](C)CC)[C@@H](C)CC)[C@H](C)OC(=O)[C@H]([C@@H](C)CC)NC1=O [Compound 50, D-Arg4-Arg9-Nva10-teixobactin] (H-[dNMeF]IS[dR][dI]IS[dT]R[Nva]I; ester 8-C)

MIC (MRSA) [19]: 2 µg/mL (≈ 1.58 µM)
Compound: CC[C@@H](C)[C@@H](NC(=O)[C@@H](CCCNC(=N)N)NC(=O)[C@H](CO)NC(=O)[C@@H](NC(=O)[C@@H](Cc1ccccc1)NC)[C@@H](C)CC)C(=O)N[C@H](C(=O)N[C@@H](CO)C(=O)N[C@H]1C(=O)N[C@@H](C)C(=O)N[C@@H](Cc2ccccc2)C(=O)N[C@@H]([C@@H](C)CC)C(=O)O[C@H]1C)[C@@H](C)CC [Compound 52, D-Arg4-Phe10-teixobactin]

MIC (MRSA) [19]: 4 µg/mL (≈ 3.37 µM)
Compound: CC[C@@H](C)[C@@H](NC(=O)[C@@H](CCCNC(=N)N)NC(=O)[C@H](CO)NC(=O)[C@@H](NC(=O)[C@@H](Cc1ccccc1)NC)[C@@H](C)CC)C(=O)N[C@H](C(=O)N[C@@H](CO)C(=O)N[C@H]1C(=O)N[C@@H](C)C(=O)N[C@@H](C)C(=O)N[C@@H]([C@@H](C)CC)C(=O)O[C@H]1C)[C@@H](C)CC [Compound 53, D-Arg4-Ala10-teixobactin]

Continued, compound first:

Compound: CC[C@@H](C)[C@@H](NC(=O)[C@@H](CCC(N)=O)NC(=O)[C@H](CCCNC(=N)N)NC(=O)[C@@H](NC(=O)[C@@H](Cc1ccccc1)NC)[C@@H](C)CC)C(=O)N[C@H](C(=O)N[C@@H](CO)C(=O)N[C@H]1C(=O)N[C@@H](C)C(=O)N[C@@H](CC(C)C)C(=O)N[C@@H]([C@@H](C)CC)C(=O)O[C@H]1C)[C@@H](C)CC [Compound 25, Arg3-Leu10-teixobactin] (H-[dNMeF]IR[dQ][dI]IS[dT]ALI; ester 8-C)
MIC [1]: 0.25 µg/mL (≈ 0.197 µM)
MIC [2]: 0.5 µg/mL (≈ 0.394 µM)
MIC [3]: <0.0625 µg/mL
MIC [4]: 0.5 µg/mL (≈ 0.394 µM)
MIC [5]: 0.5 µg/mL (≈ 0.394 µM)
MIC [6]: 0.03125 µg/mL (≈ 0.0246 µM)
MIC [7]: 0.25 µg/mL (≈ 0.197 µM)
MIC [8]: 0.125 µg/mL (≈ 0.0984 µM)
MIC [9]: 0.5 µg/mL (≈ 0.394 µM)
MIC [10]: <0.0625 µg/mL
MIC [11]: <0.0625 µg/mL
MIC [12]: <0.0625 µg/mL
MIC [13]: <0.0625 µg/mL
MIC [14]: <0.0625 µg/mL
MIC [15]: <0.0625 µg/mL
MIC [16]: <0.0625 µg/mL
MIC [17]: <0.0625 µg/mL
MIC [18]: <0.0625 µg/mL
MIC (MRSA) [19]: 0.125 µg/mL (≈ 0.0984 µM)

Compound: CC[C@@H](C)[C@@H](NC(=O)[C@@H](CCC(N)=O)NC(=O)[C@H](CCCNC(=N)N)NC(=O)[C@@H](NC(=O)[C@@H](Cc1ccccc1)NC)[C@@H](C)CC)C(=O)N[C@H](C(=O)N[C@@H](CO)C(=O)N[C@H]1C(=O)N[C@@H](CCCNC(=N)N)C(=O)N[C@@H](CC(C)C)C(=O)N[C@@H]([C@@H](C)CC)C(=O)O[C@H]1C)[C@@H](C)CC [Compound 29, Arg3-Arg9-Leu10-teixobactin] (H-[dNMeF]IR[dQ][dI]IS[dT]RLI; ester 8-C)
MIC [1]: 1 µg/mL (≈ 0.738 µM)
MIC [2]: 1 µg/mL (≈ 0.738 µM)
MIC [3]: 0.25 µg/mL (≈ 0.184 µM)
MIC [4]: 1 µg/mL (≈ 0.738 µM)
MIC [5]: 1 µg/mL (≈ 0.738 µM)
MIC [6]: 1 µg/mL (≈ 0.738 µM)
MIC [7]: 0.5 µg/mL (≈ 0.369 µM)
MIC [8]: 0.5 µg/mL (≈ 0.369 µM)
MIC [9]: 1 µg/mL (≈ 0.738 µM)
MIC [10]: 0.5 µg/mL (≈ 0.369 µM)
MIC [11]: <0.0625 µg/mL
MIC [12]: 1 µg/mL (≈ 0.738 µM)
MIC [13]: <0.0625 µg/mL
MIC [14]: <0.0625 µg/mL
MIC [15]: <0.0625 µg/mL
MIC [16]: <0.0625 µg/mL
MIC [17]: <0.0625 µg/mL
MIC [18]: 2 µg/mL (≈ 1.48 µM)
MIC against MRSA ATCC 33591 ([19]; MRSA ATCC 33591): 1 µg/mL (≈ 0.738 µM)

Compound: CCC(C)[C@@H]1NC(=O)[C@H](C)NC(=O)[C@H](NC(=O)[C@H](CO)NC(=O)[C@@H](NC(=O)[C@H](NC(=O)[C@@H](CCC(N)=O)NC(=O)[C@H](CCCNC(=N)N)NC(=O)[C@@H](NC(=O)[C@@H](Cc2ccccc2)NC)[C@@H](C)CC)[C@H](C)CC)[C@@H](C)CC)[C@H](C)OC(=O)[C@H]([C@@H](C)CC)NC1=O (stereo partly drawn) [Compound 32, Arg3-Ile10-teixobactin] (H-[dNMeF]IR[dQ][dI]IS[dT]A[Ile(3ξ)]I; ester 8-C)
MIC [1]: 0.5 µg/mL (≈ 0.394 µM)
MIC [2]: 1 µg/mL (≈ 0.787 µM)
MIC [3]: 0.125 µg/mL (≈ 0.0984 µM)
MIC [4]: 1 µg/mL (≈ 0.787 µM)
MIC [5]: 1 µg/mL (≈ 0.787 µM)
MIC [6]: 0.25 µg/mL (≈ 0.197 µM)
MIC [7]: 1 µg/mL (≈ 0.787 µM)
MIC [8]: 1 µg/mL (≈ 0.787 µM)
MIC [9]: 1 µg/mL (≈ 0.787 µM)
MIC [10]: 1 µg/mL (≈ 0.787 µM)
MIC [11]: <0.0625 µg/mL
MIC [12]: 0.125 µg/mL (≈ 0.0984 µM)
MIC [13]: <0.0625 µg/mL
MIC [14]: <0.0625 µg/mL
MIC [15]: <0.0625 µg/mL
MIC [16]: <0.0625 µg/mL
MIC [17]: <0.0625 µg/mL
MIC [18]: 0.125 µg/mL (≈ 0.0984 µM)
MIC (MRSA) [19]: 0.25 µg/mL (≈ 0.197 µM)

Compound: CCC[C@@H]1NC(=O)[C@H](CCCNC(=N)N)NC(=O)[C@H](NC(=O)[C@H](CO)NC(=O)[C@@H](NC(=O)[C@H](NC(=O)[C@@H](CCCNC(=N)N)NC(=O)[C@H](CCCNC(=N)N)NC(=O)[C@@H](NC(=O)[C@@H](Cc2ccccc2)NC)[C@@H](C)CC)[C@H](C)CC)[C@@H](C)CC)[C@H](C)OC(=O)[C@H]([C@@H](C)CC)NC1=O [Compound 51, Arg3-D-Arg4-Arg9-Nva10-teixobactin] (H-[dNMeF]IR[dR][dI]IS[dT]R[Nva]I; ester 8-C)
MIC (MRSA) [19]: 64 µg/mL (≈ 46.7 µM)

Compound: CCCCCCCCCC(=O)N[C@@H](Cc1c[nH]c2ccccc12)C(=O)N[C@H](CC(N)=O)C(=O)N[C@@H](CC(=O)O)C(=O)N[C@@H]1C(=O)NCC(=O)N[C@@H](CCCN)C(=O)N[C@@H](CC(=O)O)C(=O)N[C@H](C)C(=O)N[C@@H](CC(=O)O)C(=O)NCC(=O)N[C@H](CO)C(=O)N[C@@H]([C@H](C)CC(=O)O)C(=O)N[C@@H](CC(=O)c2ccccc2N)C(=O)O[C@@H]1C [Daptomycin, reference compound]
MIC [2]: 0.25 µg/mL (≈ 0.154 µM)
MIC [3]: <0.0625 µg/mL
MIC [4]: 0.25 µg/mL (≈ 0.154 µM)
MIC [5]: 0.25 µg/mL (≈ 0.154 µM)
MIC [6]: <0.0625 µg/mL
